According to US6177592A, “Compounds” (priority 1997, dated 2001):

Legend:
HL-60 cells = experiment: MTT growth inhibition of HL-60; type: cell-based, human; conditions: Homo sapiens, HL-60, 48 hours; for activity at 10 µM / activity at 20 µM / activity at 40 µM: read-out: degree of cell growth (ratio of absorbance at 590 nm of sample-added section to control)
Method: (2) To each of the wells of a 96-well microtiter plate was added 8, 40, 200 or 1000 μM aqueous solution of GM or 10 μl of water as a control. HL-60 (ATCC CCL-240) was suspended in an RPMI 1640 medium containing 10% of fetal calf serum to make the concentration 5×10^4 cells/ml and each 90 μl thereof was placed in each well of the above-mentioned microtiter plate and incubated at 37° C. for 48 hours in the presence of 5% carbon dioxide. Incubation was conducted for four hours more after addition of 10 μl of a solution (5 mg/ml) of 3-(4,5-dimethylthiazol-2-yl)-2,5-diphenyltetrzolium bromide (MTT; manufactured by Sigma) in a phosphate-buffered saline solution and the state of growth of the cells was observed under a microscope. Further, 100 μl of 2-propanol containing 0.04N hydrochloric acid was added followed by stirring and an absorbance at 590 nm was measured.
(3) To each well of the 96-well microtiter plate was added 100, 200 or 400 μM aqueous solution of GM or CM or 10 μl of water as a control and the inhibition activity of growth of HL-60 was measured by the same method as mentioned in Example 5-(2). The degree of cell growth was, however, expressed in terms of the ratio (%) of the absorbance at 590 nm of the sample-added section to that of the water-added section (the control).
(5) To each well of the 96-well microtiter plate was added 4.12, 12.3, 37.0, 111, 333 or 1000 μM aqueous solution of GD or 10 μl of water as a control. HL-60 (ATCC CCL-240) was suspended in an RPMI 1640 medium containing 10% of fetal calf serum to make the concentration 5×10^4 cells/ml and each 90 μl thereof was placed in each well of the above-mentioned microtiter plate followed by incubating at 37° C. for 48 hours in the presence of 5% carbon dioxide gas. The incubation was conducted for four hours more after addition of 10 μl of 5 mg/ml solution of 3-(4,5-dimethylthiazol-2-yl)-2,5-diphenyltetrazolium bromide (MTT; manufactured by Sigma) in a phosphate-buffered saline solution and the state of growth of the cells was observed under a microscope. In the meanwhile, 100 μl of 2-propanol containing 0.04N HCl was added followed by well stirring and the absorbance at 590 nm was measured.
(6) Cyclopentenone and L-cysteine hydrochloride were dissolved in a phosphate buffered saline solution (pH 7.2) to make their concentrations 55 mM and 80 mM, respectively and made to react at 37° C. for 15 minutes at pH 7.2. Apart of the reaction solution was analyzed by a reversed phase HPLC using a column of TSK gel ODS-80Ts (4.6 mm×250 mm; manufactured by Tosoh)at the flow rate of 1 ml/minute using 0.1% aqueous solution of trifluoroacetic acid as a mobile phase whereupon no cyclopentenone was detected. This reaction solution was a solution containing 55 mM of CD.
Degree of cell growth was, however, expressed in terms of the ratio (%) of the absorbance at 590 nm of the section to which the sample was added to that of the control where water was added.

[1] = test system: heat shock protein of 70 kDa (HSP70); experiment: Induction of heat shock protein of 70 kDa in HL-60; type: cell-based, human; set-up: key to Induction of Heat Shock Protein: -: no induction was noted; ±: the induction was slight; indicates degree of intensity of induction and the more the numbers of "+", the more the intensity of induction; ++: the more the numbers of "+", the more the intensity of induction; +++: the more the numbers of "+", the more the intensity of induction; conditions: for action of inducing the heat shock protein (in words): Example 14, compared with GM and CM
Method: (1) An RPMI 1640 medium (5 ml) containing 10% of fetal bovine serum which contained 2×10^5 cells/ml of HL-60 (ATCC CCL-24C) was placed in each well of a six-well plate, incubated at 37° C. for 24 hours in the presence of 5% of CO2, then GM was added thereto to make its final concentration 0, 0.5, 1.0, 3.0, 5.0, 10.0 or 20.0 μM and the incubation was further continued for eight hours more.
After completion of the incubation, cell numbers were counted and the cells were recovered by centrifugation and washed with PBS to prepare GM-treated cells. In the meanwhile, cells which were heated at 45° C. for ten minutes followed by subjecting to the same incubation were prepared as well.
The cells treated as such were subjected to an SDS-PAGE by a method mentioned in "Molecular Cloning" [Cold Spring Harbor Laboratory Press, (1989)]. The treated cells were suspended in an SDS-PAGE sample buffer to make the concentration 2.5×10^6 cells/ml, the resulting cell suspension was treated at 100° C. for ten minutes and each 5 μl thereof was applied to two sheets of SDS-PAGE gels (5% stacking gel; 10% separation gel) to conduct an electrophoresis. One of the gels was stained with Coomassie Brilliant Blue R250 while another gel was subjected to a blotting to a polyvinylidene difluoride transfer membrane (Immobilon™, manufactured by Millipore, catalog no. IPVH000-10). The membrane was subjected to a blocking at 4° C. for one night with Block Ace (manufactured by Dainippon Pharmaceutical; catalog no. UK-B25).
The blocked membrane was made to react with monoclonal antibody HSP 72/73 (Ab-1) (manufactured by Oncogene Research Products, catalog no. HSP01) which specifically reacted with heat-induced heat shock protein of 70 kDa and washed with TBS containing 0.05% of Tween 20 followed by further washing with TBS. After that, it was made to react with peroxidase-compounded secondary antibody HRP-Rabbit Anti-Mouse IgG (H+L) (manufactured by Zymed Laboratories, catalog no. 61-6520) and washed by the same manner as in the above operation. The membranes which were treated with primary and secondary antibodies as such were made to react with Renaissance™ (a chemiluiminor reagent manufactured by Dupont NEN, catalog no. NEL-100) and photosensitized with an X-ray film to detect the induction of heat shock protein of 70 kDa.
(2) CM was added to the incubated cells to make its final concentration 0, 10, 20, 30, 40 or 50 μM and expression of HSP70 was measured by the method as mentioned in Example 14-(1).

EAC = experiment: EAC/DDY mice macrobiotic effect; type: in vivo

Row | SMILES | activity at 10 µM (HL-60 cells) [%] | activity at 20 µM (HL-60 cells) [%] | activity at 40 µM (HL-60 cells) [%] | Induction of Heat Shock Protein ([1]; 10 μM CM) | Induction of Heat Shock Protein ([1]; 20 μM CM) | Induction of Heat Shock Protein ([1]; 30 μM CM) | Induction of Heat Shock Protein ([1]; 40 μM CM) | Induction of Heat Shock Protein ([1]; 50 μM CM) | action of inducing the heat shock protein (in words) [1] | macrobiotic effect (EAC) | IC100 (HL-60 cells; MTT, final concentration, read-out: concentration at which growth of HL-60 cells was completely inhibited) [µM] | Induction of Heat Shock Protein ([1]; 0.5 μM GM, eight hours) | Induction of Heat Shock Protein ([1]; 1.0 μM GM, eight hours) | Induction of Heat Shock Protein ([1]; 3.0 μM GM, eight hours) | Induction of Heat Shock Protein ([1]; 5.0 μM GM, eight hours) | Induction of Heat Shock Protein ([1]; 10 μM GM, eight hours) | Induction of Heat Shock Protein ([1]; 20 μM GM, eight hours)
1 | N[C@@H](CSC1C=C(O)C(=O)C1)C(=O)O (stereo partly shown) [CM] | 48.9 | 16.1 | 2.8 | + | ++ | ++ | + | + | action of inducing the heat shock protein | same macrobiotic effect | – | – | – | – | – | – | –
2 | N[C@@H](CCC(=O)N[C@@H](CSC1C=C(O)C(=O)C1)C(=O)NCC(=O)O)C(=O)O (stereo partly shown) [GM, 2-hydroxy-4-glutathion-S-yl-2-cyclopenten-1-one] | 14.8 | 1.8 | 3.2 | – | – | – | – | – | action of inducing the heat shock protein | same macrobiotic effect | 4 | ± | ± | + | + | ++ | ++
